Laboratory results taken from ChEMBL document CHEMBL6127078, “Discovery of 7-(1-methyl-1H-pyrazol-4-yl)-1,6-naphthyridine derivatives as potent inhibitors of rearranged during transfection (RET) and RET solvent-front mutants for overcoming selpercatinib resistance” (Eur J Med Chem, 2024).

Columns and labels:
[1] = Cmax in male Sprague-Dawley rat at 5 mg/kg, IG; format: ADME, organism-based; conditions: in vivo, po
[2] = Half life in male Sprague-Dawley rat at 5 mg/kg, IG; format: ADME, organism-based; conditions: in vivo, po
[3] = target: Vascular endothelial growth factor receptor 1 (Homo sapiens, UniProt P17948); assay: Inhibition of FLT1 (unknown origin) by FRET-based Z-Lyte kinase assay
[4] = AUC (0 to infinity) in male Sprague-Dawley rat at 1 mg/kg, iv; format: ADME, organism-based; conditions: in vivo
[5] = Toxicity in mouse allografted with mouse BaF3 cells harbouring KIF5B-RET G810R mutant assessed as drug tolerance at 10 to 30 mg/kg BID measured upto 14 days; format: organism-based; conditions: in vivo, 336 h, dose 10-30 mg/kg, time < 14 day
[6] = target: Proto-oncogene tyrosine-protein kinase receptor Ret (Homo sapiens, UniProt P07949, M918T); assay: Inhibition of RET M918T mutant (unknown origin) by FRET-based ZLyte kinase assay
Proto-oncogene tyrosine-protein kinase receptor Ret (Homo sapiens, UniProt P07949, M918T), sequence (P07949 29-1114 M918T limits assumed): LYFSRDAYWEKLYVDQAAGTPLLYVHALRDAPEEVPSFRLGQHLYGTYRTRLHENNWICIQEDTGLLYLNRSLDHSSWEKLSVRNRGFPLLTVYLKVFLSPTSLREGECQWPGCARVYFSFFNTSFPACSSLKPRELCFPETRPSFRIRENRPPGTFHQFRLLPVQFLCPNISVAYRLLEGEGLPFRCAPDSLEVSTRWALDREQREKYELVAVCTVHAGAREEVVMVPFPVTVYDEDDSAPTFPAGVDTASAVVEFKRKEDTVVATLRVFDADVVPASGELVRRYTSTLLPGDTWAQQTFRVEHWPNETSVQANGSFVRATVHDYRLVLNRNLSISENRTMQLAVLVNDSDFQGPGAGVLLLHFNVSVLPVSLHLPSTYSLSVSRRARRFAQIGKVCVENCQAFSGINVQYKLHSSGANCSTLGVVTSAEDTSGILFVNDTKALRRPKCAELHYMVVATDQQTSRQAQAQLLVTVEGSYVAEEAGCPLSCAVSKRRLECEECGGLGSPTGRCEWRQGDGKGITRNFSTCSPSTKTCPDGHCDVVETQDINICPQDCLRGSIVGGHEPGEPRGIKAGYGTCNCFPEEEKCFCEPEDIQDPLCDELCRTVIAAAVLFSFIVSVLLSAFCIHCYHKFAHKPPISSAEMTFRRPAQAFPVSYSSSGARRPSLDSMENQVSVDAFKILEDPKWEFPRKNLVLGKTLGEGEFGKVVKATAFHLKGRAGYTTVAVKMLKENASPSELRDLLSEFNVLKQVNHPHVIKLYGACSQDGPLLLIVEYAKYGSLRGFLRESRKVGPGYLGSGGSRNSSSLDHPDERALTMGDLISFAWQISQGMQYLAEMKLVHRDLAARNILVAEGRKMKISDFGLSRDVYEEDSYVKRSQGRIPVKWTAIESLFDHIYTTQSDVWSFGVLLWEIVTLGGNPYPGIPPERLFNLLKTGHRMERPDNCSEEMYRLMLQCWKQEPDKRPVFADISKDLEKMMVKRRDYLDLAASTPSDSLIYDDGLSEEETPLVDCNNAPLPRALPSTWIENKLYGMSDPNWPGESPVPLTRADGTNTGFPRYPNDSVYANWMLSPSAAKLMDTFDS

[7] = target: Vascular endothelial growth factor receptor 3 (Homo sapiens, UniProt P35916); assay: Inhibition of FLT4 (unknown origin) by FRET-based Z-Lyte kinase assay
[8] = target: Proto-oncogene tyrosine-protein kinase receptor Ret (Homo sapiens, UniProt P07949, V804L); assay: Inhibition of RET V804L mutant (unknown origin) by FRET-based ZLyte kinase assay
[9] = Oral bioavailability in male Sprague-Dawley rat at 5 mg/kg, IG; format: ADME, organism-based; conditions: in vivo
[10] = Half life in male Sprague-Dawley rat at 1 mg/kg, iv; format: ADME, organism-based; conditions: in vivo
[11] = target: Proto-oncogene tyrosine-protein kinase receptor Ret (Homo sapiens, UniProt P07949, V804M); assay: Inhibition of RET V804M mutant (unknown origin) by FRET-based ZLyte kinase assay
[12] = Apparent volume of distribution in male Sprague-Dawley rat at 5 mg/kg, IG; format: ADME, organism-based; conditions: in vivo, po
[13] = target: Proto-oncogene tyrosine-protein kinase receptor Ret (Homo sapiens, UniProt P07949); assay: Inhibition of wild type RET (unknown origin) by FRET-based ZLyte kinase assay
Proto-oncogene tyrosine-protein kinase receptor Ret (Homo sapiens, UniProt P07949), sequence (P07949 whole entry): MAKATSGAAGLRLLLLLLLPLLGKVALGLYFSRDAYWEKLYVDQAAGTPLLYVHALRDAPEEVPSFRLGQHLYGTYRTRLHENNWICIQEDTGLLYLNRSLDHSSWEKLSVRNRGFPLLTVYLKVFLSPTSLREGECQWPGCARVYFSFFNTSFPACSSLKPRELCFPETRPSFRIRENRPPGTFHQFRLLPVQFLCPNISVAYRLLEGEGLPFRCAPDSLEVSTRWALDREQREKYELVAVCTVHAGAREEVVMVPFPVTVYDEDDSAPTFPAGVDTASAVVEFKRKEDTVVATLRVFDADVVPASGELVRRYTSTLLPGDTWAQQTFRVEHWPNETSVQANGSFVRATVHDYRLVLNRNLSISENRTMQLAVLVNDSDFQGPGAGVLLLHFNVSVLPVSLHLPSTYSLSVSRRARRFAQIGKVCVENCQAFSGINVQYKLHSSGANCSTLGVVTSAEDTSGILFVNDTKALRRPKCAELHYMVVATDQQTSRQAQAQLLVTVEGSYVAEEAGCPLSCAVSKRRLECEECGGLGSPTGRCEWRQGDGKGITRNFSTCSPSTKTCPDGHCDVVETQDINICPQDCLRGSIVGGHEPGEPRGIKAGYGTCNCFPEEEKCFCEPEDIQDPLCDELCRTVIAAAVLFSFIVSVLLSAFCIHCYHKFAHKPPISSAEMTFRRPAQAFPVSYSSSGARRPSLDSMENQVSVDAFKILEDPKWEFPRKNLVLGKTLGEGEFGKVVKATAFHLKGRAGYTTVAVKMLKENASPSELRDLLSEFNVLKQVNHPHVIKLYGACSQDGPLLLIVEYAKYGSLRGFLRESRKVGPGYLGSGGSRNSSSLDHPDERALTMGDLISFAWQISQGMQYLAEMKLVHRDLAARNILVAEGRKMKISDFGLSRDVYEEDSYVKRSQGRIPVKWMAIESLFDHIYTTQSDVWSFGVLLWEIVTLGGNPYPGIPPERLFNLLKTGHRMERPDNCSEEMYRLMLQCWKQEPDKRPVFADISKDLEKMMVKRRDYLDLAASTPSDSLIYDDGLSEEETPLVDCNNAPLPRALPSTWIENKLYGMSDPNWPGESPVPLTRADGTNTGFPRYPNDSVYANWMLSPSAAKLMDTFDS

[14] = target: T1, Receptor-type tyrosine-protein kinase FLT3 (Homo sapiens, UniProt P36888); assay: Inhibition of FLT3 (unknown origin) by FRET-based Z-Lyte kinase assay
T1 sequence (P36888 whole entry): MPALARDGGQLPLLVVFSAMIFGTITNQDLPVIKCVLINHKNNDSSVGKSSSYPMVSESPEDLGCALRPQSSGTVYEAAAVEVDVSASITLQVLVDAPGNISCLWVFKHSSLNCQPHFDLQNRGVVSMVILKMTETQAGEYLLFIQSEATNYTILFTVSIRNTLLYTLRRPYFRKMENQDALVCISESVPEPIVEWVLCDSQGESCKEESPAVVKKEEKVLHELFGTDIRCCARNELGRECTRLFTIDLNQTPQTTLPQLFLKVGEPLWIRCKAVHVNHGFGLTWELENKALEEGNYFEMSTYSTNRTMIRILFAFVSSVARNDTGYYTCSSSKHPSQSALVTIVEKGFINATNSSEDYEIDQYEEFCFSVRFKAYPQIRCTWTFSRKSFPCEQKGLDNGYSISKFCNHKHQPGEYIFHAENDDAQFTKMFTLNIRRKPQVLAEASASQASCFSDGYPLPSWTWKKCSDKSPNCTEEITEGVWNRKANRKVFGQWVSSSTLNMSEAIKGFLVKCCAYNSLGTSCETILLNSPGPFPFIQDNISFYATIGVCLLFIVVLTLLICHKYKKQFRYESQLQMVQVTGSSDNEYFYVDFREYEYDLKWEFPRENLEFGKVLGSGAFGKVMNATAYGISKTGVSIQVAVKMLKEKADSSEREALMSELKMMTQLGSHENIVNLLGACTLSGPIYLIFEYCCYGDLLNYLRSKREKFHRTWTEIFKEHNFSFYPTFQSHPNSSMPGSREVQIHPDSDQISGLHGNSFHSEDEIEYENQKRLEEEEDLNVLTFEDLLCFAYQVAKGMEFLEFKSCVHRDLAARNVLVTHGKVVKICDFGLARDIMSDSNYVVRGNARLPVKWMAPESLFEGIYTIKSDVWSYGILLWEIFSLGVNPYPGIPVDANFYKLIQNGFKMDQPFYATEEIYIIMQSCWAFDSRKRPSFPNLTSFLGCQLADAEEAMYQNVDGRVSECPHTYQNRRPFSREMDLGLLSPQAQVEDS

[15] = Toxicity in mouse allografted with mouse BaF3 cells harbouring KIF5B-RET-wild type assessed as drug tolerance at 10 mg/kg BID measured upto 14 days; format: organism-based; conditions: in vivo, 336 h, time < 14 day
[16] = target: Tyrosine-protein kinase JAK2 (Homo sapiens, UniProt O60674); assay: Inhibition of JAK2 (unknown origin) by FRET-based Z-Lyte kinase assay
Tyrosine-protein kinase JAK2, sequence (O60674 whole entry): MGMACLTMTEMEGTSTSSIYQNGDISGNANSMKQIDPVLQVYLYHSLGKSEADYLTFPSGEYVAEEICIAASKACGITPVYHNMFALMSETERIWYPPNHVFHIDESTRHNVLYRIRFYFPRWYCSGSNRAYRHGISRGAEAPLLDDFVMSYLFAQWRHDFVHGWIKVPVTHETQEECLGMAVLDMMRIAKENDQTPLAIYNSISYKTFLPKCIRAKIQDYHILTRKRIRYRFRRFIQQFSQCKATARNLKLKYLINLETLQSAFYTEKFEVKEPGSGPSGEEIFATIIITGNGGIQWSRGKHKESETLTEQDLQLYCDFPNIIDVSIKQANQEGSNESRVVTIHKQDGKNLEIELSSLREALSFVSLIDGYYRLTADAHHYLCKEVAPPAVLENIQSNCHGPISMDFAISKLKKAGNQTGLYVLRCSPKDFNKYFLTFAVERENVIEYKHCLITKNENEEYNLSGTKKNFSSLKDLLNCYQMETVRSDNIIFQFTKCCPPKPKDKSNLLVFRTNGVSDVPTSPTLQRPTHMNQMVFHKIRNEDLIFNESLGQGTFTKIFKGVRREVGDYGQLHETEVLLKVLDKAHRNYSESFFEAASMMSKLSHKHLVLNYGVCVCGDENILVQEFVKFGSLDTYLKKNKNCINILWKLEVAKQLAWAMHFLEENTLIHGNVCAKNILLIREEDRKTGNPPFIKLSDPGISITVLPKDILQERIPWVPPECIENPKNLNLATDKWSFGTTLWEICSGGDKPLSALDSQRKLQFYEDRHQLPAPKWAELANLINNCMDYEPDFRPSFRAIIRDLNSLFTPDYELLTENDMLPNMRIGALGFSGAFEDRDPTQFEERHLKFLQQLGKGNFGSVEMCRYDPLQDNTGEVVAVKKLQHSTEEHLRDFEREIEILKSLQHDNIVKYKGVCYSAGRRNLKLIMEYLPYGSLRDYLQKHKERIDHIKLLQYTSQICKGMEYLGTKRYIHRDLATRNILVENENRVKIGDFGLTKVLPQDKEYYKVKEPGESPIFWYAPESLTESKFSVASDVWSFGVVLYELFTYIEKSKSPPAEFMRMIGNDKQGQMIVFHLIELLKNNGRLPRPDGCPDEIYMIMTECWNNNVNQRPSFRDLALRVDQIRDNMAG

[17] = Toxicity in mouse allografted with mouse BaF3 cells harbouring KIF5B-RET-wild type assessed as mortality at 10 mg/kg BID measured upto 14 days; format: organism-based; conditions: in vivo, 336 h, time < 14 day
[18] = AUC (0 to infinity) in male Sprague-Dawley rat at 5 mg/kg, IG; format: ADME, organism-based; conditions: in vivo, po
[19] = Toxicity in mouse allografted with mouse BaF3 cells harbouring KIF5B-RET G810R mutant assessed as mortality at 10 to 30 mg/kg BID measured upto 14 days; format: organism-based; conditions: in vivo, 336 h, dose 10-30 mg/kg, time < 14 day
[20] = Clearance in male Sprague-Dawley rat at 5 mg/kg, IG; format: ADME, organism-based; conditions: in vivo, po
[21] = Toxicity in mouse allografted with mouse BaF3 cells harbouring KIF5B-RET G810R mutant assessed as effect on body weight loss at 10 to 30 mg/kg BID measured upto 14 days; format: organism-based; conditions: in vivo, 336 h, dose 10-30 mg/kg, time < 14 day
[22] = target: Proto-oncogene tyrosine-protein kinase receptor Ret (Homo sapiens, UniProt P07949, G810S); assay: Inhibition of RET G810S mutant (unknown origin) by FRET-based ZLyte kinase assay
[23] = Toxicity in mouse allografted with mouse BaF3 cells harbouring KIF5B-RET-wild type assessed as effect on body weight loss at 10 mg/kg BID measured upto 14 days; format: organism-based; conditions: in vivo, 336 h, time < 14 day
[24] = Apparent volume of distribution in male Sprague-Dawley rat at 1 mg/kg, iv; format: ADME, organism-based; conditions: in vivo, read-out: Vz
[25] = Clearance in male Sprague-Dawley rat at 1 mg/kg, iv; format: ADME, organism-based; conditions: in vivo
[26] = Tmax in male Sprague-Dawley rat at 5 mg/kg, IG; format: ADME, organism-based; conditions: in vivo, po
[27] = target: Proto-oncogene tyrosine-protein kinase receptor Ret (Homo sapiens, UniProt P07949, G810C); assay: Inhibition of RET G810C mutant (unknown origin) by FRET-based ZLyte kinase assay
[28] = Cmax in male Sprague-Dawley rat at 1 mg/kg, iv; format: ADME, organism-based; conditions: in vivo
[29] = target: Proto-oncogene tyrosine-protein kinase receptor Ret (Homo sapiens, UniProt P07949, G810R); assay: Inhibition of RET G810R mutant (unknown origin) by FRET-based ZLyte kinase assay
[30] = target: Epithelial discoidin domain-containing receptor 1 (Homo sapiens, UniProt Q08345); assay: Inhibition of DDR1 (unknown origin) by FRET-based Z-Lyte kinase assay
[31] = target: Fibroblast growth factor receptor 4 (Homo sapiens, UniProt P22455); assay: Inhibition of FGFR4 (unknown origin) by FRET-based Z-Lyte kinase assay
[32] = target: Vascular endothelial growth factor receptor 2 (Homo sapiens, UniProt P35968); assay: Inhibition of KDR (unknown origin) by FRET-based Z-Lyte kinase assay
Vascular endothelial growth factor receptor 2, sequence (P35968 whole entry): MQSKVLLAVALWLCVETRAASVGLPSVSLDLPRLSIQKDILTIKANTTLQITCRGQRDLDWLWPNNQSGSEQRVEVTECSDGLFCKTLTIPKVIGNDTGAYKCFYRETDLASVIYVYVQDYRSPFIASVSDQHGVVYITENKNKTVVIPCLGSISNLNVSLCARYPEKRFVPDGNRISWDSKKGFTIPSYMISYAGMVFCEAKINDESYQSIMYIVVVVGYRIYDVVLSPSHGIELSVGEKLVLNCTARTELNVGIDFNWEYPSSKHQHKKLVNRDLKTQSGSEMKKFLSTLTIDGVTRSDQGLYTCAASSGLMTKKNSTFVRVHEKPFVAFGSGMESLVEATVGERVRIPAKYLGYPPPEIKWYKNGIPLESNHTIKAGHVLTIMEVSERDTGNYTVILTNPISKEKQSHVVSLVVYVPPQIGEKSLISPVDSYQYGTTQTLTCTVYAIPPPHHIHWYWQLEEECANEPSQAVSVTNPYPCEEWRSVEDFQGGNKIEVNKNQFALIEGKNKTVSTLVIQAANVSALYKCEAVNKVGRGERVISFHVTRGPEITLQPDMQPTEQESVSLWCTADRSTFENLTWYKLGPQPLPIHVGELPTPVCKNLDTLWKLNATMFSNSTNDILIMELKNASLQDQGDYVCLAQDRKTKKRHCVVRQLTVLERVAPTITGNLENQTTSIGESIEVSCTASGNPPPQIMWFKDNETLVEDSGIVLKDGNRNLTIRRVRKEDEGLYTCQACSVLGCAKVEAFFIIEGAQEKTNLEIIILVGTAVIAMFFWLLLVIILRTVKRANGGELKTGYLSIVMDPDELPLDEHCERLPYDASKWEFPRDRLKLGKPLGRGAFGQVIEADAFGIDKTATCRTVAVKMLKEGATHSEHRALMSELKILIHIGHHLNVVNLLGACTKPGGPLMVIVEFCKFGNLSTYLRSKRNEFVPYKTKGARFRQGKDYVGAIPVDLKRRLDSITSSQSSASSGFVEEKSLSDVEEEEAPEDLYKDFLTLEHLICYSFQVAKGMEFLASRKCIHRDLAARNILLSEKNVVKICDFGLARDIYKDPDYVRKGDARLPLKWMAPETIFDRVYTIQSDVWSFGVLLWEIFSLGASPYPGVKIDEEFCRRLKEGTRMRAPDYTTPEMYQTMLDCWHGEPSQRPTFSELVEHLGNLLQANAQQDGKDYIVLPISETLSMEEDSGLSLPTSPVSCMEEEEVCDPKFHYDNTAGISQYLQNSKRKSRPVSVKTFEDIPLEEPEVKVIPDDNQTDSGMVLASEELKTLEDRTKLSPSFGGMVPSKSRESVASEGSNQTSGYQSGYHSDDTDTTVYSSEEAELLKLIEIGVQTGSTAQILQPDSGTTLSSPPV

SMILES: COc1ccc(CN2C3CC2CN(c2ccc(-c4nc(-c5cnn(C)c5)cc5ncccc45)cn2)C3)cc1C#N
- Cmax [1]: 140 ng/mL
- half-life [2]: 4.6 h
- IC50 [3]: 34.9 nM
- AUC(0-inf) [4]: 451 ng·h/mL
- Activity [5]: Non-Toxic
- IC50 [6]: 0.4 nM
- IC50 [7]: 5.1 nM
- IC50 [8]: 0.2 nM
- bioavailability [9]: 30.4%
- half-life [10]: 5 h
- IC50 [11]: 1.8 nM
- Vz [12]: 48.1 L/kg
- IC50 [13]: 3.2 nM
- IC50 [14]: 52.7 nM
- Activity [15]: Non-Toxic
- IC50 [16]: 2650 nM
- Activity [17]: Non-Toxic
- AUC(0-inf) [18]: 686 ng·h/mL
- Activity [19]: Non-Toxic
- CL/F [20]: 122 mL/min/kg
- Activity [21]: Non-Toxic
- IC50 [22]: 5.7 nM
- Activity [23]: Non-Toxic
- Vd [24]: 17.2 L/kg
- clearance [25]: 40 mL/min/kg
- Tmax [26]: 1.6 h
- IC50 [27]: 7.1 nM
- Cmax [28]: 265 ng/mL
- IC50 [29]: 8.3 nM
- IC50 [30]: 334 nM
- IC50 [31]: 113 nM
- IC50 [32]: 27.3 nM
